Reference: PMC6576746, “Rational discovery of dual-indication multi-target PDE/Kinase inhibitor for precision anti-cancer therapy using structural systems pharmacology” (PLoS Computational Biology, 2019)

Columns and labels:
Assay in all cases: cells
Parameters in all cases: species or system panel of human cancer cell lines; Eurofins OncoPanel proliferation; nuclei count by high-content fluorescence imaging, 10-point dose response
A204 = settings: Homo sapiens, A204, 72 h, cell count, 3 days
Experimental: (§1) OncoPanel cancer cell proliferation assay was performed by Eurofins Panlabs, Inc. (Missouri, USA). Cancer cells were grown in RPMI 1640, 10% FBS, 2 mM L-alanyl-L-glutamine, 1 mM Na pyruvate, or a special medium. Cells were seeded into 384-well plates and incubated in a humidified atmosphere of 5% CO2 at 37°C. Compounds were added the day following cell seeding. At the same time, a time zero untreated cell plate was generated. After a 3-day incubation period, cells were fixed and stained to allow fluorescence imaging of nuclei. Levosimendan was serially diluted in half-log steps from 100 μM and assayed over 10 concentrations with a maximum assay concentration of 0.1% DMSO. Automated fluorescence microscopy was carried out using a Molecular Devices ImageXpress Micro XL high-content imager, and images were collected with a 4X objective. 16-bit TIFF images were acquired and analyzed with MetaXpress 5.1.0.41 software. Cell count EC50 is the test concentration at the curve inflection point (parameter C), or half the effective response. IC50 is the test compound concentration at 50% of the maximum possible response. GI50 is the concentration needed to reduce the observed growth by half (midway between the relative cell count at the curve maximum and at the time of compound addition). Activity area is an estimate of the integrated area above the response curve. Activity area values range from 0–10, where a value of zero indicates no inhibition of proliferation at all concentrations, and a value of 10 indicates complete inhibition of proliferation at all concentrations.

BC-1 = settings: Homo sapiens, BC1, 72 h, cell count, 3 days
Experimental: as §1

CAL-62 = settings: Homo sapiens, CAL-62, 72 h, cell count, 3 days
Experimental: as §1

Cal 27 = settings: Homo sapiens, CAL-27, 72 h, cell count, 3 days
Experimental: as §1

HCT-8 = settings: Homo sapiens, HCT-8, 72 h, cell count, 3 days
Experimental: as §1

HOS = settings: Homo sapiens, HOS, 72 h, cell count, 3 days
Experimental: as §1

HUH-6 Clone 5 = settings: HUH-6-clone5, 72 h, cell count, 3 days
Experimental: as §1

LS-174T = settings: Homo sapiens, LS174T, 72 h, cell count, 3 days
Experimental: as §1

OVCAR3 = settings: Homo sapiens, OVCAR-3, 72 h, cell count, 3 days
Experimental: as §1

RD = settings: Homo sapiens, RD, 72 h, cell count, 3 days
Experimental: as §1

SK-PN-DW = settings: 72 h, cell count, 3 days
Experimental: as §1

ST486 = settings: Homo sapiens, ST486, 72 h, cell count, 3 days
Experimental: as §1

SW-13 = settings: Homo sapiens, SW13, 72 h, cell count, 3 days
Experimental: as §1

SiHa = settings: Homo sapiens, SiHa, 72 h, cell count, 3 days
Experimental: as §1

[1] = 50% of maximum possible response

IC50 (HCT-8; [1]): 23.9 µM
GI50 (HCT-8; corrected for time zero): 23.3 µM
EC50 (HCT-8; curve inflection point): 23.2 µM
IC50 (HUH-6 Clone 5; [1]): 27.1 µM
GI50 (HUH-6 Clone 5; corrected for time zero): 20 µM
EC50 (HUH-6 Clone 5; curve inflection point): 27.1 µM
IC50 (OVCAR3; [1]): 42.6 µM
GI50 (OVCAR3; corrected for time zero): 24.1 µM
EC50 (OVCAR3; curve inflection point): 42.6 µM
IC50 (SK-PN-DW; [1]): 57.4 µM
GI50 (SK-PN-DW; corrected for time zero): 43.3 µM
EC50 (SK-PN-DW; curve inflection point): 57.4 µM
IC50 (SW-13; [1]): 6.13 µM
GI50 (SW-13; corrected for time zero): 3.72 µM
EC50 (SW-13; curve inflection point): 6.13 µM
SMILES: C[C@@H]1CC(=O)NN=C1c1ccc(NN=C(C#N)C#N)cc1 [levosimendan]
IC50 (A204; [1]): 9.19 µM
GI50 (A204; corrected for time zero): 7.57 µM
EC50 (A204; curve inflection point): 7.85 µM
IC50 (BC-1; [1]): 18.9 µM
GI50 (BC-1; corrected for time zero): 14.6 µM
EC50 (BC-1; curve inflection point): 18.9 µM
IC50 (CAL-62; [1]): 12.3 µM
GI50 (CAL-62; corrected for time zero): 11.4 µM
EC50 (CAL-62; curve inflection point): 12.1 µM
IC50 (Cal 27; [1]): 14.9 µM
GI50 (Cal 27; corrected for time zero): 13.2 µM
EC50 (Cal 27; curve inflection point): 14.5 µM
IC50 (HOS; [1]): 11.4 µM
GI50 (HOS; corrected for time zero): 9.54 µM
EC50 (HOS; curve inflection point): 11.4 µM
IC50 (LS-174T; [1]): > 100 µM
GI50 (LS-174T; corrected for time zero): > 100 µM
EC50 (LS-174T; curve inflection point): > 100 µM
IC50 (RD; [1]): 20.6 µM
GI50 (RD; corrected for time zero): 15.7 µM
EC50 (RD; curve inflection point): 20.6 µM
IC50 (ST486; [1]): 8.16 µM
GI50 (ST486; corrected for time zero): 6.04 µM
EC50 (ST486; curve inflection point): 8.16 µM
IC50 (SiHa; [1]): > 100 µM
GI50 (SiHa; corrected for time zero): 60 µM
EC50 (SiHa; curve inflection point): 41.2 µM
